Results on 16 molecules are retold here after paper PMC6522510 (Nature Communications, 2019).

Among the test systems are CHRF288-11; CMK; CMS; M07e; ML-2; MOLM-13; MV4-11; U937.
Holding throughout (set-up): species or system AML cell lines (8); Primary HTS, single concentration about 10 uM, Cell Titer Glo viability; log10 luminescence, per cent inhibition relative to cycloheximide control
Conditions in all cases: 72 h, relative to cycloheximide control, log10 luminescence; inhibitor

`Nc1[nH]nc2nc(-c3cccs3)cc(C(F)(F)F)c12` [SJ000581105-1]: the CHRF288-11 %inh in the assay with CHRF288-11 was -1.43%. Moreover, the CMK %inh in the assay with CMK is recorded as -1.06%. In addition, the CMS %inh in the assay with CMS was 2.722%. Further, in the assay with M07e, the M07e %inh came to 8.033%. For the same molecule, the ML-2 %inh in the assay with ML-2 is listed as 1.699%. Besides, the MOLM-13 %inh with MOLM-13 stood at 17.65%. Also, the MV4-11 %inh in the assay on MV4-11 was 7.712%. Further, in the assay with U937, the U937 %inh is 0.05414%.

`COc1cc(C=NNc2ncnc3c2cnn3-c2ccccc2)ccc1O` [SJ000573226-1, U14681/58/1]: the CHRF288-11 %inh in the assay on CHRF288-11 came to 10.72%. Moreover, the CMK %inh in the assay with CMK is -0.5633%. Besides, in the assay on CMS, the CMS %inh is recorded as 3.107%. In the assay with M07e, the M07e %inh was found to be 11.87%. Also, in the assay on ML-2, the ML-2 %inh is given as -0.2562%. For the same molecule, in the assay on MOLM-13, the MOLM-13 %inh amounted to 3.51%. The MV4-11 %inh in the assay on MV4-11 is given as 35.25%. In addition, the U937 %inh in the assay on U937 is listed as 8.322%.

As for `CO/N=C(\C(=O)N[C@@H]1C(=O)N2C(C(=O)O)=CCS[C@H]12)c1csc(N)n1` [SJ000565169-1, CEFTIZOXIME SODIUM], the CHRF288-11 %inh in the assay with CHRF288-11 is given as -3.529%. In the assay on CMK, the CMK %inh was -4.179%. Also, the CMS %inh with CMS is reported as -3.365%. For the same molecule, the M07e %inh in the assay on M07e came out at 1.196%. The ML-2 %inh in the assay on ML-2 is reported as -0.7534%. For the same molecule, the MOLM-13 %inh in the assay on MOLM-13 is given as -3.581%. For the same molecule, the MV4-11 %inh in the assay with MV4-11 is given as -0.08777%. In the assay with U937, the U937 %inh is listed as -0.2552%.

In the case of `C[C@@H](Oc1cc(-n2cnc3ccc(OCC4CCN(C)CC4)cc32)sc1C(N)=O)c1ccccc1C(F)(F)F` [SJ000573257-1, U20395/196/2], the CHRF288-11 %inh in the assay with CHRF288-11 was 130.5%. Besides, in the assay on CMK, the CMK %inh was 97.6%. Besides, the CMS %inh in the assay on CMS is 75.53%. For the same molecule, in the assay on M07e, the M07e %inh is listed as 98.02%. The ML-2 %inh with ML-2 is reported as 59.84%. The MOLM-13 %inh in the assay with MOLM-13 was determined as 108.4%. In the assay with MV4-11, the MV4-11 %inh turned out to be 86.97%. Moreover, the U937 %inh in the assay with U937 turned out to be 73.66%.

Consider `Cc1cc(O)cc(C)c1/C=C/c1cncc(C(=O)OC(C)(C)C)c1` [SJ000573091-1, U11962/36/1], for which, in the assay with CHRF288-11, the CHRF288-11 %inh is given as -1.68%. In the assay with CMK, the CMK %inh stood at 2.193%. For the same molecule, the CMS %inh in the assay with CMS was -1.844%. The M07e %inh with M07e is -1.025%. Also, in the assay on ML-2, the ML-2 %inh was -0.1273%. Further, in the assay with MOLM-13, the MOLM-13 %inh came out at 2.429%. Moreover, the MV4-11 %inh with MV4-11 amounted to 1.728%. In addition, the U937 %inh with U937 was -1.9%.

Take `COC(=O)c1sc(-n2cnc3cc(OC)c(OC)cc32)cc1OCc1ccccc1C(F)(F)F` [SJ000573308-1, U22436/119/1]: the CHRF288-11 %inh in the assay on CHRF288-11 is recorded as -2.151%. Besides, in the assay on CMK, the CMK %inh was found to be 0.3974%. The CMS %inh in the assay on CMS came to 4.6%. In addition, the M07e %inh in the assay on M07e turned out to be 0.7415%. The ML-2 %inh in the assay on ML-2 is reported as -1.915%. Further, in the assay with MOLM-13, the MOLM-13 %inh is listed as -0.8474%. The MV4-11 %inh in the assay on MV4-11 is reported as -1.071%. The U937 %inh in the assay on U937 is reported as 29.63%.

Turning to `CC1=C(C(=O)Nc2ccc3[nH]ncc3c2)C(c2ccc(Cl)c(Cl)c2)CC(=O)N1` (centres unmarked) [SJ000573256-1, SD205340-087A3], the CHRF288-11 %inh in the assay with CHRF288-11 came out at 13.93%. For the same molecule, the CMK %inh with CMK was determined as 25.41%. Besides, the CMS %inh in the assay with CMS was determined as 3.826%. Also, in the assay with M07e, the M07e %inh is reported as 6.129%. For the same molecule, the ML-2 %inh in the assay on ML-2 was determined as 6.91%. In addition, in the assay on MOLM-13, the MOLM-13 %inh worked out at 0.01758%. For the same molecule, the MV4-11 %inh in the assay on MV4-11 was determined as 13.75%. The U937 %inh in the assay on U937 is given as 2.616%.

For the molecule `CCCNc1cccc(-n2ncc3c(N/N=C/c4ccncc4)ncnc32)c1` [SJ000573085-1, U17680/65/1], in the assay with CHRF288-11, the CHRF288-11 %inh was found to be 2.576%. Also, the CMK %inh in the assay with CMK stood at 0.2304%. Besides, in the assay with CMS, the CMS %inh is recorded as 0.7041%. In addition, the M07e %inh in the assay with M07e turned out to be 4.312%. Also, in the assay on ML-2, the ML-2 %inh is recorded as -0.9551%. Also, the MOLM-13 %inh in the assay with MOLM-13 is -1.209%. Besides, the MV4-11 %inh in the assay on MV4-11 is recorded as -0.4908%. Besides, the U937 %inh with U937 is recorded as -0.2236%.

For the molecule `Cn1cc(C2=C(Oc3ccccc3)C(=O)NC2=O)c2ccccc21` [SJ000581001-1], the CHRF288-11 %inh with CHRF288-11 was -2.432%. In addition, the CMK %inh with CMK is listed as -0.6422%. Moreover, the CMS %inh in the assay with CMS is on record as -3.067%. Besides, the M07e %inh in the assay on M07e is given as -0.2429%. In the assay with ML-2, the ML-2 %inh is -1.623%. Also, the MOLM-13 %inh in the assay with MOLM-13 is given as -0.02006%. Further, the MV4-11 %inh in the assay with MV4-11 is reported as -0.8354%. In addition, in the assay on U937, the U937 %inh was determined as 0.6544%.

In the case of `COC(=O)Nc1nc2cc(Oc3ccc(NC(=O)Nc4ccccc4)cc3)ccc2[nH]1` [SJ000573165-1, T261/64/2], the CHRF288-11 %inh with CHRF288-11 came to 29.47%. In addition, in the assay with CMK, the CMK %inh turned out to be 109.7%. The CMS %inh in the assay with CMS amounted to 99.63%. Besides, in the assay on M07e, the M07e %inh was found to be 91.37%. The ML-2 %inh in the assay on ML-2 is 57.46%. The MOLM-13 %inh with MOLM-13 was found to be 87.75%. Further, the MV4-11 %inh in the assay on MV4-11 is recorded as 69.12%. In addition, in the assay on U937, the U937 %inh was 81.37%.

Regarding `CCN(CC)Cc1ccc(Nc2nccc(-c3cnn4ncccc34)n2)cc1` [SJ000573341-1, U20497/10/4], the CHRF288-11 %inh in the assay on CHRF288-11 is on record as 61.01%. Also, the CMK %inh in the assay on CMK came to 90.23%. In addition, the CMS %inh in the assay with CMS is 102.8%. Moreover, the M07e %inh in the assay on M07e was determined as 122.1%. Also, the ML-2 %inh in the assay on ML-2 amounted to 56.99%. Further, the MOLM-13 %inh with MOLM-13 was found to be 89.9%. In addition, in the assay with MV4-11, the MV4-11 %inh was found to be 77.95%. For the same molecule, the U937 %inh in the assay on U937 came to 77.76%.

As for `CCn1c(-c2nonc2N)nc2cnc(Oc3cccc(NC(=O)c4ccc(N(C)C)cc4)c3)cc21` [SJ000573244-1, DG202759-186A1], in the assay with CHRF288-11, the CHRF288-11 %inh is 1.25%. The CMK %inh in the assay with CMK was 54.89%. The CMS %inh with CMS was determined as 1.931%. Also, the M07e %inh in the assay with M07e is recorded as -4.099%. For the same molecule, the ML-2 %inh in the assay on ML-2 is listed as 13.68%. Further, in the assay with MOLM-13, the MOLM-13 %inh turned out to be 0.8338%. For the same molecule, the MV4-11 %inh in the assay with MV4-11 turned out to be 28.29%. Moreover, the U937 %inh in the assay with U937 is given as 5.13%.

Consider `COc1ccc2c(-c3ccnc(Nc4cccc(OC(F)(F)F)c4)n3)cnn2n1` [SJ000573232-1, U17838/93/4], for which the CHRF288-11 %inh in the assay with CHRF288-11 came out at 5.074%. In addition, the CMK %inh in the assay with CMK is given as -2.18%. For the same molecule, in the assay on CMS, the CMS %inh was 1.867%. Further, the M07e %inh in the assay with M07e turned out to be 3.247%. Besides, the ML-2 %inh in the assay on ML-2 was found to be 8.399%. Besides, in the assay on MOLM-13, the MOLM-13 %inh is on record as -2.645%. Also, in the assay on MV4-11, the MV4-11 %inh is 0.503%. Moreover, in the assay on U937, the U937 %inh is listed as 2.538%.

Take `CC[C@@H]([C@H](C)O)n1ncn(-c2ccc(N3CCN(c4ccc(OC[C@@H]5CO[C@@](Cn6cncn6)(c6ccc(F)cc6F)C5)cc4)CC3)cc2)c1=O` [SJ000555711-1, POSACONAZOLE]: the CHRF288-11 %inh in the assay on CHRF288-11 came to 4.654%. In addition, in the assay on CMK, the CMK %inh is -1.399%. Moreover, the CMS %inh with CMS is given as 1.852%. For the same molecule, the M07e %inh in the assay on M07e was -0.5919%. In addition, the ML-2 %inh with ML-2 was -0.9552%. Besides, the MOLM-13 %inh with MOLM-13 is recorded as -0.6762%. Moreover, the MV4-11 %inh with MV4-11 is given as 1.133%. The U937 %inh with U937 was found to be 4.703%.

As for `CCCN1CCC(c2ccc(Nc3nc(Nc4cc(F)ccc4C(N)=O)c4cc[nH]c4n3)c(OC)c2)CC1` [SJ000573328-1, U23536/58/1], the CHRF288-11 %inh in the assay on CHRF288-11 is reported as 106.3%. Moreover, the CMK %inh with CMK is 51.59%. Further, the CMS %inh in the assay with CMS turned out to be 49%. Moreover, the M07e %inh in the assay with M07e is given as 37.4%. Besides, the ML-2 %inh with ML-2 is listed as 55.61%. Besides, the MOLM-13 %inh in the assay on MOLM-13 was found to be 66.64%. In the assay with MV4-11, the MV4-11 %inh is 58.24%. For the same molecule, in the assay with U937, the U937 %inh was 63.82%.

As for `Cc1cn([C@@H]2C[C@@H](O)[C@H](CO)O2)c(=O)[nH]c1=O` [SJ000556735-1, TELBIVUDINE], in the assay with CHRF288-11, the CHRF288-11 %inh was found to be 5.146%. Besides, the CMK %inh with CMK is reported as -3.078%. Further, the CMS %inh in the assay with CMS was -2.406%. In the assay on M07e, the M07e %inh was 0.6931%. Further, in the assay on ML-2, the ML-2 %inh came out at 2.339%. Further, the MOLM-13 %inh in the assay on MOLM-13 is -1.046%. The MV4-11 %inh with MV4-11 was found to be 3.878%. Besides, the U937 %inh in the assay on U937 is 2.103%.
